Data published in patent publication US8222404B2, “[1,2,4]Thiadiazin-3-yl acetic acid compound and methods of making the acetic acid compound” (Anadys Pharmaceuticals, Inc., priority 2008, dated 2012).

Test system: HCV Huh-luc/neo-ET replicon cells
Experiment: Luciferase-Based HCV Replicon Assay (EC50 (1b))
Format: cell-based
Details: 72 hours exposure, luciferase activity
Experimental: Luciferase-Based HCV Replicon Assay Protocol (EC50 (1b))
The cell culture component of the assay was performed essentially as described by Bartenschlager et al., Hepatology 2002, 35, 694-703, wherein exponentially growing HCV Huh-luc/neo-ET replicon cells were seeded at 6×10^3 cells/well in 96 well assay plate. 24 hours later the cells were treated with various concentrations of compound in triplicate. After 72 hours exposure to the compound, the luciferase activity in the wells was determined using Bright-Glo reagent (Promega, Madison, Wis.) with a luminometer (Wallac 1420 Multilabel HTS Counter Victor 2). The background control was replicon cells treated with 100 nM BILN-2061, an inhibitor of the HCV protease. % Inhibition was determined for each compound concentration in relation to the negative (no compound) control to calculate the EC50 (1b).

| Compound | EC50 [nM] | EC50 (Hepatitis C virus) [nM] |
| --- | --- | --- |
| CC(C)(C)CCN1C(=O)C(C2=NS(=O)(=O)c3c(CNS(C)(=O)=O)csc3N2)=C(O)C2C3CCC(C4CC43)C21 (racemic) [Example 25, (rac-di-exo)-N-{3-[3-(3,3-Dimethyl-butyl)-6-hydroxy-4-oxo-3-aza-tetracyclo[6.3.2.0^2,7.0^9,11]tridec-5-en-5-yl]-1,1-dioxo-1,4-dihydro-1λ^6-thieno[2,3-e][1,2,4]thiadiazin-7-ylmethyl}-methanesulfonamide] | ≤ 5 |  |
| CS(=O)(=O)NCc1csc2c1S(=O)(=O)N=C(C1=C(O)C3CCCC3N(NC3CCC3)C1=O)N2 (racemic) [Example 27, (rac-cis)-N-[3-(1-cyclobutylamino-4-hydroxy-2-oxo-2,4a,5,6,7,7a-hexahydro-1H-[1]pyrindin-3-yl)-1,1-dioxo-1,4-dihydro-1λ^6-thieno[2,3-e][1,2,4]thiadiazin-7-ylmethyl]-methanesulfonamide] |  | > 1000 |
| CS(=O)(=O)NCc1csc2c1S(=O)(=O)N=C(C1=C(O)C3C4CC(C5CC54)C3N(Cc3ccc(F)cc3)C1=O)N2 (racemic) [Example 32, (rac-di-exo, di-exo)-N-{3-[3-(4-Fluoro-benzyl)-6-hydroxy-4-oxo-3-aza-tetracyclo[6.3.1.0^2,7.0^9,11]dodec-5-en-5-yl]-1,1-dioxo-1,4-dihydro-1λ^6-thieno[2,3-e][1,2,4]thiadiazin-7-ylmethyl}-methanesulfonamide] |  | ≤ 5 |
| CS(=O)(=O)NCc1csc2c1S(=O)(=O)N=C(C1=C(O)C3C4CCC(O4)C3N(Cc3ccccc3)C1=O)N2 (racemic) [Example 45, (rac-di-exo)-N-[3-(3-Benzyl-6-hydroxy-4-oxo-11-oxa-3-aza-tricyclo[6.2.1.0^2,7]undec-5-en-5-yl)-1,1-dioxo-1,4-dihydro-1λ^6-thieno[2,3-e][1,2,4]thiadiazin-7-ylmethyl]-methanesulfonamide] |  | 20 to 100 |
| CS(=O)(=O)NCc1csc2c1S(=O)(=O)N=C(C1=C(O)C3C4C=CC(C4)C3N(Cc3ccccc3)C1=O)N2 (racemic) [Example 46, (rac-di-exo)-N-[3-(3-Benzyl-6-hydroxy-4-oxo-3-aza-tricyclo[6.2.1.0^2,7]undeca-5,9-dien-5-yl)-1,1-dioxo-1,4-dihydro-1λ^6-thieno[2,3-e][1,2,4]thiadiazin-7-ylmethyl]-methanesulfonamide] |  | ≤ 5 |
| CS(=O)(=O)NCc1csc2c1S(=O)(=O)N=C(C1=C(O)C3C4C=CC(C4)C3N(Cc3ccc(F)cc3)C1=O)N2 (racemic) [Example 47, (rac-di-exo)-N-{3-[3-(4-Fluoro-benzyl)-6-hydroxy-4-oxo-3-aza-tricyclo[6.2.1.0^2,7]undeca-5,9-dien-5-yl]-1,1-dioxo-1,4-dihydro-1λ^6-thieno[2,3-e][1,2,4]thiadiazin-7-ylmethyl}-methanesulfonamide] |  | ≤ 5 |
| CS(=O)(=O)NCc1csc2c1S(=O)(=O)N=C(C1=C(O)C3C4CCC(O4)C3N(Cc3ccsc3)C1=O)N2 (racemic) [Example 61, (rac-di-exo)-N-[3-(6-Hydroxy-4-oxo-3-thiophen-3-ylmethyl-11-oxa-3-aza-tricyclo[6.2.1.0^2,7]undec-5-en-5-yl)-1,1-dioxo-1,4-dihydro-1λ^6-thieno[2,3-e][1,2,4]thiadiazin-7-ylmethyl]-methanesulfonamide] |  | 20 to 100 |
| CC(C)(C)CCN1C(=O)C(C2=NS(=O)(=O)c3c(CNS(C)(=O)=O)csc3N2)=C(O)C2C3CCC(O3)C21 (racemic) [Example 62, (rac-di-exo)-N-{3-[3-(3,3-Dimethyl-butyl)-6-hydroxy-4-oxo-11-oxa-3-aza-tricyclo[6.2.1.0^2,7]undec-5-en-5-yl]-1,1-dioxo-1,4-dihydro-1λ^6-thieno[2,3-e][1,2,4]thiadiazin-7-ylmethyl}-methanesulfonamide] |  | 5 to 20 |
| CC(C)CCN1C(=O)C(C2=NS(=O)(=O)c3c(CNS(C)(=O)=O)csc3N2)=C(O)C2C3CCC(O3)C21 (racemic) [Example 63, (rac-di-exo)-N-{3-[6-Hydroxy-3-(3-methyl-butyl)-4-oxo-11-oxa-3-aza-tricyclo[6.2.1.0^2,7]undec-5-en-5-yl]-1,1-dioxo-1,4-dihydro-1λ^6-thieno[2,3-e][1,2,4]thiadiazin-7-ylmethyl}-methanesulfonamide] |  | 20 to 100 |
| CS(=O)(=O)NCc1csc2c1S(=O)(=O)N=C(C1=C(O)C3C4C=CC(C4)C3N(Cc3ccsc3)C1=O)N2 (racemic) [Example 64, (rac-di-exo)-N-[3-(6-Hydroxy-4-oxo-3-thiophen-3-ylmethyl-3-aza-tricyclo[6.2.1.0^2,7]undeca-5,9-dien-5-yl)-1,1-dioxo-1,4-dihydro-1λ^6-thieno[2,3-e][1,2,4]thiadiazin-7-ylmethyl]-methanesulfonamide] |  | ≤ 5 |
| CC(C)(C)CCN1C(=O)C(C2=NS(=O)(=O)c3c(CNS(C)(=O)=O)csc3N2)=C(O)C2C3C=CC(C3)C21 (racemic) [Example 65, (rac-di-exo)-N-{3-[3-(3,3-Dimethyl-butyl)-6-hydroxy-4-oxo-3-aza-tricyclo[6.2.1.0^2,7]undeca-5,9-dien-5-yl]-1,1-dioxo-1,4-dihydro-1λ^6-thieno[2,3-e][1,2,4]thiadiazin-7-ylmethyl}-methanesulfonamide] |  | ≤ 5 |
| CC(C)CCN1C(=O)C(C2=NS(=O)(=O)c3c(CNS(C)(=O)=O)csc3N2)=C(O)C2C3C=CC(C3)C21 (racemic) [Example 66, (rac-di-exo)-N-{3-[6-Hydroxy-3-(3-methyl-butyl)-4-oxo-3-aza-tricyclo[6.2.1.0^2,7]undeca-5,9-dien-5-yl]-1,1-dioxo-1,4-dihydro-1λ^6-thieno[2,3-e][1,2,4]thiadiazin-7-ylmethyl}-methanesulfonamide] |  | 5 to 20 |
| COc1ccc(CN2C(=O)C(C3=NS(=O)(=O)c4c(CNS(C)(=O)=O)csc4N3)=C(O)C3C4CCC(O4)C32)c(OC)c1 (racemic) [Example 75, (rac-di-exo)-N-{3-[3-(2,4-Dimethoxy-benzyl)-6-hydroxy-4-oxo-11-oxa-3-aza-tricyclo[6.2.1.0^2,7]undec-5-en-5-yl]-1,1-dioxo-1,4-dihydro-1λ^6-thieno[2,3-e][1,2,4]thiadiazin-7-ylmethyl}-methanesulfonamide] |  | > 1000 |
| COc1ccc(CN2C(=O)C(C3=NS(=O)(=O)c4c(CNS(C)(=O)=O)csc4N3)=C(O)C3C4C=CC(C4)C32)c(OC)c1 (racemic) [Example 76, (rac-di-exo)-N-{3-[3-(2,4-Dimethoxy-benzyl)-6-hydroxy-4-oxo-3-aza-tricyclo[6.2.1.0^2,7]undeca-5,9-dien-5-yl]-1,1-dioxo-1,4-dihydro-1λ^6-thieno[2,3-e][1,2,4]thiadiazin-7-ylmethyl}-methanesulfonamide] |  | > 1000 |
| COc1ccc(CN2C(=O)C(C3=NS(=O)(=O)c4c(CNS(C)(=O)=O)csc4N3)=C(O)C3CCCCC32)c(OC)c1 (racemic) [Example 78, (rac-cis)-N-{3-[1-(2,4-Dimethoxy-benzyl)-4-hydroxy-2-oxo-1,2,4a,5,6,7,8,8a-octahydro-quinolin-3-yl]-1,1-dioxo-1,4-dihydro-1λ^6-thieno[2,3-e][1,2,4]thiadiazin-7-ylmethyl}-methanesulfonamide] |  | > 1000 |
| COc1ccc(CN2C(=O)C(C3=NS(=O)(=O)c4c(CNS(C)(=O)=O)csc4N3)=C(O)C3CCCCCC32)c(OC)c1 (racemic) [Example 79, (rac-cis)-N-{3-[1-(2,4-Dimethoxy-benzyl)-4-hydroxy-2-oxo-2,4a,5,6,7,8,9,9a-octahydro-1H-cyclohepta[b]pyridin-3-yl]-1,1-dioxo-1,4-dihydro-1λ^6-thieno[2,3-e][1,2,4]thiadiazin-7-ylmethyl}-methanesulfonamide] |  | > 1000 |
| CS(=O)(=O)NCc1csc2c1S(=O)(=O)N=C(C1=C(O)C3C4CCC(O4)C3NC1=O)N2 (racemic) [Example 83, (rac-di-exo)-N-[3-(6-Hydroxy-4-oxo-11-oxa-3-aza-tricyclo[6.2.1.0^2,7]undec-5-en-5-yl)-1,1-dioxo-1,4-dihydro-1λ^6-thieno[2,3-e][1,2,4]thiadiazin-7-ylmethyl]-methanesulfonamide] |  | > 1000 |
| CS(=O)(=O)NCc1csc2c1S(=O)(=O)N=C(C1=C(O)C3C4C=CC(C4)C3NC1=O)N2 (racemic) [Example 84, (rac-di-exo)-N-[3-(6-Hydroxy-4-oxo-3-aza-tricyclo[6.2.1.0^2,7]undeca-5,9-dien-5-yl)-1,1-dioxo-1,4-dihydro-1λ^6-thieno[2,3-e][1,2,4]thiadiazin-7-ylmethyl]-methanesulfonamide] |  | > 1000 |
| CS(=O)(=O)NCc1csc2c1S(=O)(=O)N=C(C1=C(O)C3CCCCC3NC1=O)N2 (racemic) [Example 86, (rac-cis)-N-[3-(4-Hydroxy-2-oxo-1,2,4a,5,6,7,8,8a-octahydro-quinolin-3-yl)-1,1-dioxo-1,4-dihydro-1λ^6-thieno[2,3-e][1,2,4]thiadiazin-7-ylmethyl]-methanesulfonamide] |  | > 1000 |
| CS(=O)(=O)NCc1csc2c1S(=O)(=O)N=C(C1=C(O)C3CCCCCC3NC1=O)N2 (racemic) [Example 87, (rac-cis)-N-[3-(4-Hydroxy-2-oxo-2,4a,5,6,7,8,9,9a-octahydro-1H-cyclohepta[b]pyridin-3-yl)-1,1-dioxo-1,4-dihydro-1λ^6-thieno[2,3-e][1,2,4]thiadiazin-7-ylmethyl]-methanesulfonamide] |  | > 1000 |
| CS(=O)(=O)NCc1csc2c1S(=O)(=O)N=C(C1=C(O)C3C4CCC(O4)C3N(Cc3ccc(F)cc3)C1=O)N2 (racemic) [Example 90, (rac-di-exo)-N-{3-[3-(4-Fluoro-benzyl)-6-hydroxy-4-oxo-11-oxa-3-aza-tricyclo[6.2.1.0^2,7]undec-5-en-5-yl]-1,1-dioxo-1,4-dihydro-1λ^6-thieno[2,3-e][1,2,4]thiadiazin-7-ylmethyl}-methanesulfonamide] |  | 5 to 20 |
